Measurements taken from patent US20070203060A1, “Casein Derived Peptides And Therapeutic Uses Thereof” (priority 2004, published 2007).
Entries after “also recorded” stand apart in the source; their conditions may differ.

Assays:
[1] = system: murine primary bone marrow cells (CFU-GEMM); assay: Multipotential colonies (CFU-GEMM) from murine bone marrow cells, colony and differential counts; format: cell-based, mouse; conditions: for Early (E.MK) megakaryocyte formation (in words): 25 μg or more, 14 days; for Early (E.MK) megakaryocyte formation (in words) / increase in total megakaryocyte proliferation over controls: FIG. 21; for increase in total megakaryocyte proliferation over controls: differential count; for megakaryocyte formation and development (in words): 8 days treatment
Description: Proliferation of megakaryocytes in multipotential colonies (CFU-GEMM) from murine Bone Marrow cells: Primary bone marrow cells (1×10^5 per ml) from 8-12 week-old C3H/HeJ mice were grown in serum-free methyl cellulose-IMDM medium for 8-9 days at 5% CO2, 95% air, at 37° C. The medium, appropriate for the growth of multipotential colonies (CFU-GEMM), contained 1% BSA (Sigma), 10^−4 M thioglycerol (Sigma), 2.8×10^−4 M human transferrin (TF, Biological industries, Israel), 10% WEHI-CM as a source of IL-3 and 2 units per ml erythropoietin (rhEPO, R & D Systems, Minneapolis). […] They were picked with a micropipette, cytocentrifuged and stained with May-Grunwald-Giemsa for differential counts. At least 700 cells were counted for each preparation. […]

[2] = system: platelets of myeloablated, bone marrow transplanted mice; assay: Platelet reconstitution in irradiated bone marrow transplant recipient mice; format: in vivo, mouse; conditions: for enhancement of platelet counts compared to control mice: F1 mice, 750 cGy, 1 mg i.v., 10 days post-transplantation; for increase in platelet counts over untreated controls / platelet count: 800 cGy, 4 daily i.p. injections; for increase in platelet counts over untreated controls: 100 μg per mouse
Description: Leukocyte and platelet reconstitution in bone marrow transplant recipient mice: BALB/c mice were sub-lethally irradiated at a source to skin distance of 70 cm, dosage of 50 cGy per minute, for a total of 600 cGy. The irradiated mice were reconstituted with syngeneic bone marrow as described above and injected intravenously 24 hours later with 1 mg per animal peptides derived from natural casein, synthetic peptides derived from casein (13-26 amino acids, see Table 3 above), or human serum albumin (controls), following a double-blinded protocol. Leukocyte reconstitution was determined according to cell count in peripheral blood collected at indicated intervals from 6 to 12 days post treatment. Platelet reconstitution was determined by cell count in blood collected from the retro orbital plexus, into EDTA-containing vials, at indicated intervals from day 6 to day 15 post treatment.
In an additional series of experiments, CBA mice were lethally irradiated (900 cGy), reconstituted with BM cells and treated with peptides derived from natural casein or human serum albumin as described above. Platelet reconstitution was assayed as mentioned above.
[…] Platelet reconstitution was assayed at 10 and 12 days post-transplantation.

[3] = system: human Peripheral Blood Stem Cells / K562 target cells; assay: NK activity of cultured human PBSC (35S release from K562 target cells); format: cell-based
Description: From human Peripheral Blood Stem Cells (PBSC): PBSC of G-CSF treated subjects were separated on a FICOLL gradient, washed twice with RPMI-1640 medium containing 10% FCS and glutamine, and seeded into 1.5 ml wells with or without peptides derived from natural casein or synthetic peptides derived from casein, as indicated, (0-500 μg per ml). Following two days incubation the cells were assayed for Natural Killer activity by measuring radioactivity released from ^35S-labeled K562 target cells (NEG-709A, 185.00 MBq, 2.00 mCi EASYTAGth Methionine, L-[^35S] 43.48 TBq per mmol, 1175.0 Ci per mmol, 0.488 ml, Boston USA). Two concentrations of effector cells (2.5×10^5 and 5×10^5 cells per well) were incubated with 5×10^3 target cells per well (effector:target cell ratios of 50:1 and 100:1, respectively) in U-bottomed 96 well tissue culture plates. The cells were incubated for 5 hours at 37° C. in 5% CO2, 95% air and precipitated by 5 minutes centrifugation at 1000 rpm. ^35S release was measured in 50 μl samples of the supernatant liquid.

[4] = system: HIV-1 infection of CEM cells; assay: Inhibition of in vitro HIV-1 infection of CEM lymphocytes (cell counts, P24 antigen assay); format: cell-based
Description: Peptides: Peptides (either peptides derived from natural casein or synthetic peptides derived from casein (2-26 amino acids in length, see table 3) supplied as lyophilized powder were resuspended in RPMI complete medium and added to cell cultures at a final concentrations of 50 to 1000 μg per ml.
Cells: Several types of freshly isolated human cells (primary cells) and cell lines are known to be susceptible to in vitro HIV-1 infection, although essentially any cell displaying even low surface levels of the CD4molecule can be considered a potential target for HIV-1 infection. Two commonly used human cell lines which are highly sensitive for HIV-1 infection were chosen, CEM and Sup-T1.
CEM is a human T4-lymphoblastoid cell line initially derived by G. E. Foley et al. [(1965), Cancer 18:522] from peripheral blood buffy coat of a person with acute lymphoblastic leukemia. These cells were continuously maintained in suspension in medium, and have been used widely for analysis of infectivity, antiviral agents and neutralizing antibodies.
Virus: The HIV virus strain employed was HIV-1IIIB, originally designated HTLV-IIIB. Concentrated culture fluids of peripheral blood from several patients with AIDS or related diseases were used to establish a permanent productive infection in H-9 cells. This subtype B virus has high capacity to replicate in human T-cell lines. Viral titer was 5.38 ng per ml in stock solution.
HIV-1 P^24 antigen capture assay: An HIV-1 P^24 Antigen capture assay kit employed was designed to quantitate the HIV-1 P^24 core antigen, which is proportionally related to the degree of viral production in cells. This kit was purchased from the AIDS Vaccine program of the SAIC-NCI-Frederick Cancer Research Institute, P.O. Box B, Frederick, Md. 21702, USA and included 96 well plates coated with monoclonal antibody to HIV-1 P^24, primary antibody-rabbit anti-HIV P^24 serum, secondary antibody-Goat anti-rabbit-IgG (H+ L) peroxidase conjugated antibody, TMB peroxidase substrate system and lysed HIV-1 P^24 standard. The HIV-1 P^24 antigen capture assay was analyzed by Organon-Technica ELISA reader at 450 nm with a reference at 650 nm.
HIV-1 P^24 antigen capture ELISA: HIV infection was measured with an indirect enzyme immunoassay which detects HIV-1 P^24 core antigens in tissue culture media. Tissue culture supernatant was reacted with primary rabbit anti-HIV-1 P^24 antigen and visualized by peroxidase conjugated goat anti rabbit IgG. The reaction was terminated by adding 4N H2SO4, wherein the intensity of the color developed is proportional to the amount of HIV-1 antigen present in the tissue culture supernatant.
HIV infection of human cultured CD4 cells: For longer incubations, the cells (CEM, Sup-T1) were preincubated with several increasing concentrations of peptides derived from natural casein (50-1000 μg per ml) or synthetic peptides derived from casein (10-500 μg per ml) for 24 (for synthetic and natural peptides) and 48 (only for natural peptides) hours and HIV-1IIIB (45 pg per ml final concentration) was added to each well thereafter. For the shorter incubations (3 hours), HIV-1IIIB was preincubated with the peptides for 3 hours and then added to cells (5000 cells/well) in tissue culture plates. Controls were IF (Infected, cells cultured with HIV-1 and without peptides), UIF (Uninfected, cells cultured without HIV-1 and without peptides) and UIF+Ch (Uninfected+peptides derived from natural casein, cells cultured in the presence of peptides derived from natural casein {50-1000 μg per ml}) to test the effect of peptides derived from natural casein and synthetic peptides derived from casein on cell viability and growth. Cells were counted for viability and proliferation rate on day 7, 10 and day 14 post infection (the day of P^24 antigen culture supernatant harvest). Cells and tissue culture supernatants (media) were harvested and lysed immediately in 1/10 volume of 10% Triton X-100. […]

[5] = system: glucose metabolism in NOD mice; assay: Intraperitoneal Glucose Tolerance Test (IPGTT) in NOD mice; format: in vivo, mouse; conditions: healthy NOD mice after 25 weeks
Description: Intraperitoneal Glucose Tolerance Test (IPGTT): The glucose tolerance test is the definitive method for investigating glucose metabolism and diabetic tendencies in mammals. Twenty five (25) weeks after receiving Synthetic peptides derived from casein, response to a glucose load was assessed with an intraperitoneal glucose tolerance test. Glucose injection consisted of 1 g/kg body weight. Glycemic values were determined from blood drawn prior to test (0 minutes) and 60 minutes after loading.

[6] = system: peripheral white blood cells of myeloablated, bone marrow transplanted mice; assay: Leukocyte reconstitution in irradiated bone marrow transplant recipient mice; format: in vivo, mouse; conditions: for peripheral white blood cell count: BALB/c, 600 cGy, 1 mg per mouse i.p.; for early leukocyte reconstitution (in words): F1 mice, 750 cGy, 1 mg i.v., 5 and 7 days post-transplantation
[7] = system: human bone marrow progenitor cells (CFU-GM); assay: CFU-GM colonies from human bone marrow progenitor cells with IL-3 and G-CSF; format: cell-based; conditions: 300 μg/ml, G-CSF and IL-3, 14 days
Description: Cells were scored in the macroscopic colonies grown from human bone marrow cells prepared similarly to the CFU-GEMM colonies previously described. Cells were incubated with hematopoietic factors cytokine (IL-3) and colony stimulating factor (G-CSF), and 25 μg or more of synthetic peptides derived from casein: peptide J, representing amino acids 1-22 of α-S1 casein (SEQ ID NO. 21), or β-casein, representing amino acids 193-208 of β-casein (SEQ ID No. 28). Exposure of the human bone marrow progenitor cells to peptides derived from casein was for 14 days. Stimulation of colony formation (CFU) is expressed as the number of myeloid per colonies in 10^5 plated MNCs. Note the synergistic increase (>50% with 100 μg/ml of peptide J, and >30% with 300 μg/ml of synthetic β-casein) in myelocyte formation in cultures exposed to G-CSF, IL-3 and the synthetic peptides derived from β-casein and an N terminal portion of α-S1 casein.
A similar effect of synthetic peptides derived from α-, β- or κ-casein was observed on the proliferation of granulocytes and macrophages from human bone marrow progenitor cells. […] (FIG. 20). Thus, synthetic peptides derived from αS1-, αS2-, β- or κ-casein or combinations thereof are effective in augmenting the effect of granulopoietic factors such as G-CSF on bone marrow hematopoietic progenitor cell differentiation and expansion.

Substance: MAIPPKKNQDKTEIPTINTIAS [κ 106-127]
- Early (E.MK) megakaryocyte formation (in words) [1]: dramatic effect
- increase in total megakaryocyte proliferation over controls [1]: 21%
- enhancement of platelet counts compared to control mice ([2]; listed as SEQ ID NO: 30): 26%

Substance: RPK [1P]
- patients responding (of the 5 tested) ([3]; 25 μg/ml peptide): 3
- patients responding (of the 5 tested) ([3]; 100 μg/ml peptide): 1
- patients responding (of the 5 tested) ([3]; 250 μg/ml peptide): 1
- target cell lysis, fold that of untreated controls ([3]; PBS cells from donors with hematopoietic disease): ≥ 2 fold
- HIV-P24 antigen ([4]; 100 μg/ml, 7 days post infection, untreated control 0.52): 0.17 ng P^24 Antigen/ml
- HIV-P24 antigen ([4]; 500 μg/ml, 7 days post infection, untreated control 0.52): 0.14 ng P^24 Antigen/ml

Substance: RPKHP [3P]
- megakaryocyte formation and development (in words) [1]: significant increase
- HIV-P24 antigen ([4]; virus pre-treated 3 hours, 10 μg per ml, 7 days post infection, control 0.52): 0.26 ng P^24 Ag per ml
- HIV-P24 antigen ([4]; virus pre-treated 3 hours, 25 μg per ml, 7 days post infection, control 0.52): 0.18 ng P^24 Ag per ml

Substance: RPKHPI [4P]
- megakaryocyte formation and development (in words) [1]: significant increase
- increase in platelet counts over untreated controls ([2]; 12 days post transplantation): 29%
- platelet count ([2]; 12 days post transplantation): 872000 mL⁻¹
- HIV-P24 antigen (in words) ([4]; virus pre-incubated 3 hours, 7 days post infection): dose dependent reduction
- cell counts ([4]; virus pre-treated 3 hours, 250 μg per ml, infected control 1.06×10^6): 1.59×10^6

Substance: RPKHPIKHQ [X]
- glucose tolerance (IPGT) test result in words [5]: no evidence of abnormal glucose metabolism

Substance: RPKHPIKHQGL [2a]
- megakaryocyte formation and development (in words) [1]: significant increase

Substance: RPKHPIKHQGLP [3a]
- megakaryocyte formation and development (in words) [1]: significant increase
- increase in platelet counts over untreated controls ([2]; 10 days post transplantation): up to 35.5%
- increase in platelet counts over untreated controls ([2]; 12 days post transplantation): up to 13.5%
- platelet count ([2]; 10 days post transplantation): 229000 mL⁻¹
- platelet count ([2]; 12 days post transplantation): 622000 mL⁻¹

Substance: RPKHPIKHQGLPQEVLN
- megakaryocyte formation and development (in words) [1]: significant increase

Substance: RPKHPIKHQGLPQEVLNE [F]
- megakaryocyte formation and development (in words) [1]: significant increase

Substance: RPKHPIKHQGLPQEVLNENL
- megakaryocyte formation and development (in words) [1]: significant increase

Substance: RPKHPIKHQGLPQEVLNENLL
- megakaryocyte formation and development (in words) [1]: significant increase

Substance: RPKHPIKHQGLPQEVLNENLLR [J]
- Early (E.MK) megakaryocyte formation (in words) [1]: dramatic effect
- peripheral white blood cell count ([6]; day 10): 2.74 ×10^6 cells per ml
- peripheral white blood cell count ([6]; day 12): 5.20 ×10^6 cells per ml
- early leukocyte reconstitution (in words) ([6]; listed as SEQ ID NO: 21): dramatic enhancement; also recorded: strong stimulation

Substance: RPKHPIKHQGLPQEVLNENLLRFF
- megakaryocyte formation and development (in words) [1]: significant increase

Substance: YQEPVLGPVRGPFPII [β 193-208]
- Early (E.MK) megakaryocyte formation (in words) [1]: dramatic effect
- increase in total megakaryocyte proliferation over controls [1]: 32%
- enhancement of granulopoietic stimulating effect of G-CSF (myelocyte formation) ([7]; listed as SEQ ID NO: 28): 30%
- enhancement of granulopoietic stimulating effect of G-CSF (myelocyte formation) ([7]; listed as synthetic β-casein): > 30%
- early leukocyte reconstitution (in words) ([6]; listed as SEQ ID NO: 28): dramatic enhancement; also recorded: strong stimulation
- enhancement of platelet counts compared to control mice ([2]; listed as SEQ ID NO: 28): 32%
